pKi: −log10 of the molar value. Like-named read-outs stand apart in the source and are kept apart here.
Key:
[1] = target: human recombinant 5-HT2A receptor (Homo sapiens (Human), UniProt P28223); assay: biochemical; format: binding; conditions: [3H]-Ketanserin 3 nmol/L, Jump-In HEK cell membrane
Experimental: Test Example 1: 5-HT2A Receptor Binding Inhibition Test
(Each Experimental Condition)
Cell membrane: 15 μg of Jump-In HEK cell membrane (expressing human recombinant 5-HT2A receptor) per well
Assay buffer: Tris-HCl 50 mmol/L (pH 7.4) containing NaCl 120 mmol/L, MgCl2·6H2O 1 mmol/L, KCl 5 mmol/L, 0.1% BSA and CaCl2 2 mmol/L
Radioactive ligand: [^3H]-Ketanserin with a final concentration of 3 nmol/L
(§1) Non-specific ligand: Serotonin HCl with a final concentration of 500 μmol/L
(§2) The Kd value was calculated when the lot of cell membrane was changed. […] The radioactive ligand solution was serially diluted from 16 nM at a 2-fold ratio and the count was confirmed with a liquid scintillator. […] After that, filtration was performed with Cell harvester (PerkinElmer). The radioactive ligand solution was dispensed into an empty well of the GF/B UniFilter plate at 10 μL/well. […] The GF/B UniFilter plate was allowed to stand overnight at room temperature. […] The Saturation curve was drawn from the measured value, and the Kd value was calculated from the slope of the Scatchard Plot.
(§3) (Binding Test of the Compound According to the Present Invention)
(§4) After that, filtration was performed with Cell harvester (PerkinElmer).

[2] = target: human recombinant 5-HT2C receptor (Homo sapiens (Human), UniProt P28335); assay: biochemical; format: binding
Experimental: Test Example 2: 5-HT2C Receptor Binding Inhibition Test
(Each experimental condition)
Cell membrane: 0.5 μg of Jump-In HEK cell membrane (expressing human recombinant 5-HT2C receptor) per well
Assay buffer: Tris-HCl 50 mmol/L (pH 7.4) containing NaCl 120 mmol/L, MgCl2·6H2O 1 mmol/L, KCl 5 mmol/L, 0.1% BSA and CaCl2) 2 mmol/L
Radioactive ligand: [^3H]-Mesulergine with a final concentration of 1 nmol/L
as §1, §2, §3, §4

hERG channel (IKr) = hERG channel (IKr) (Homo sapiens (Human), UniProt Q12809); assay: hERG test (automated whole cell patch clamp, IKr); format: cell-based; conditions: CHO cells expressing hERG channel, pH 7.4, compound concentration of 3 μmol/L, read-out: hERG inhibition rate (tail peak current IKr)
Description: Test Example 3: hERG Test
For the purpose of assessing risk of an electrocardiogram QT interval prolongation of the compound according to the present invention, effects of the compound according to the present invention on delayed rectifier K^+ current (IKr), which plays an important role in the ventricular repolarization process, was studied using CHO cells expressing human ether-a-go-go related gene (hERG) channel.
After a cell was retained at a membrane potential of −80 mV by whole cell patch clamp method using an automated patch clamp system (QPatch; Sophion Bioscience A/S) and gave a leak potential of −50 mV, IKr induced by depolarization pulse stimulation at +20 mV for 2 seconds, and further, repolarization pulse stimulation at −50 mV for 2 seconds, was recorded. A vehicle, which was the 0.1% dimethyl sulfoxide solution in extracellular solution (NaCl: 145 mmol/L, KCl: 4 mmol/L, CaCl2: 2 mmol/L, MgCl2: 1 mmol/L, glucose:10 mmol/L, HEPES (4-(2-hydroxyethyl)-1-piperazineethanesulfonic acid): 10 mmol/L, pH7.4), or the compound according to the present invention had been dissolved at an objective concentration in the extracellular solution, each of the extracellular solution was applied to the cell at room temperature for 15 minutes or more. From the recording IKr, an absolute value of the tail peak current was measured based on the current value at the resting membrane potential using analysis software (QPatch Assay software; Sophion Bioscience A/S). The % inhibition of the tail peak current after application of the compound according to the present invention relative to the tail peak current after application of the vehicle was calculated, and further correction was performed using the inhibition rate result of the negative control to assess influence of the compound according to the present invention on IKr.

[3] = class symbols, read-out: h-5-HT2A Ki
[4] = human serotonin 5-HT2C receptor binding, [3H]-Mesulergine, read-out: h-5-HT2C Ki
[5] = read-out: human serotonin 5-HT2A receptor binding activity, Ki
[6] = [3H]-Mesulergine 1 nmol/L, Jump-In HEK cell membrane, read-out: human serotonin 5-HT2C receptor binding activity, Ki

Chain of hERG channel (IKr) (Q12809 whole entry): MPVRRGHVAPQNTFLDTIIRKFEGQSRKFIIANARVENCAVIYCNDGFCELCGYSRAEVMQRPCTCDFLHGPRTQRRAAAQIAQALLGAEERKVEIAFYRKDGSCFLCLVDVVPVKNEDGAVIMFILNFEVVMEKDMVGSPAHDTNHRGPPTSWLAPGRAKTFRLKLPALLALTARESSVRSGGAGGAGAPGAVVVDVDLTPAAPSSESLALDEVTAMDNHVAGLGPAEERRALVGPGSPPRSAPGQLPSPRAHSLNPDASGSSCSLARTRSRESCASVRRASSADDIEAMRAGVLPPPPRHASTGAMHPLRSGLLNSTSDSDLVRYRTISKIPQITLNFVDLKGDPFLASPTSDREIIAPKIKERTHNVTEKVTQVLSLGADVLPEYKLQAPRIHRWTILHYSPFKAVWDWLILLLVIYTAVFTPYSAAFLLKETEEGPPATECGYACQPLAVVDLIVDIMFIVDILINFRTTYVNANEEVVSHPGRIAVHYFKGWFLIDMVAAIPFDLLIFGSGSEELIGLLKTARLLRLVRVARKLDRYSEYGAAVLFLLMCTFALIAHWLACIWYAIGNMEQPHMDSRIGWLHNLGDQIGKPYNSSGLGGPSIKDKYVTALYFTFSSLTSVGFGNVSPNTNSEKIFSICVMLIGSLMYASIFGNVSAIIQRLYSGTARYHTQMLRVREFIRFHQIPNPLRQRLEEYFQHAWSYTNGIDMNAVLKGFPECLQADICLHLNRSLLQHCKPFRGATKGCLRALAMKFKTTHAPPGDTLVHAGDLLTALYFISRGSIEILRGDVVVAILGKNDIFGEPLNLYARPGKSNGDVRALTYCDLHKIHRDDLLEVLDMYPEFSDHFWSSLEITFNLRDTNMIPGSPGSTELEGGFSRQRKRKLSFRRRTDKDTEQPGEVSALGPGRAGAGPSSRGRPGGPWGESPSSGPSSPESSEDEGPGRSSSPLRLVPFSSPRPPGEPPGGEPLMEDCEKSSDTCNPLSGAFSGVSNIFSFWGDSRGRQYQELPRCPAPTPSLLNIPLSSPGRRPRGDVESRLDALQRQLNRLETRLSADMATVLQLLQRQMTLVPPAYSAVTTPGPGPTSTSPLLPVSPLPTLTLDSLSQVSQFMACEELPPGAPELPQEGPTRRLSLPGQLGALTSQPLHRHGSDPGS
Chain of human recombinant 5-HT2C receptor (P28335 whole entry, looked up): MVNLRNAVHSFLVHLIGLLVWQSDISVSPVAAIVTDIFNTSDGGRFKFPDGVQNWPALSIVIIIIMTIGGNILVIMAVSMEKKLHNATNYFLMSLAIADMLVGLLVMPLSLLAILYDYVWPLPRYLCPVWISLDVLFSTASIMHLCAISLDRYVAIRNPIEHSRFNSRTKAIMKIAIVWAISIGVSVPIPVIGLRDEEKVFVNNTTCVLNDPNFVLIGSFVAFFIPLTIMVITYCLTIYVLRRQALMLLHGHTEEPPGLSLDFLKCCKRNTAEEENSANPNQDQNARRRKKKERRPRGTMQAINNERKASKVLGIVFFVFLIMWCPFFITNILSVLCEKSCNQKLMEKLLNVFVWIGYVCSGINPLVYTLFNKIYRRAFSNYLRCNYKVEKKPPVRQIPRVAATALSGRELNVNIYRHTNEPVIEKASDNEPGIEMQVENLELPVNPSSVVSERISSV

| SMILES | pKi [1, 3] | pKi [2, 4] | pKi [1, 5] | pKi [2, 6] | inhibition at 3 μmol/L (hERG channel (IKr)) [%] |
| --- | --- | --- | --- | --- | --- |
| CCCOc1ccc(CNC(=O)N(Cc2ccn(C)n2)[C@H]2CCNC[C@H]2F)cc1 [Compound I-122] | > 8.00 | 7.00 to 8.00 |  |  |  |
| CCCOc1ccc(CNC(=O)N(Cc2cc(C)n(C)n2)[C@H]2CCNC[C@H]2F)cc1 [Compound I-123] | > 8.00 | 7.00 to 8.00 |  |  |  |
| CC(C)COc1ccc(CNC(=O)N(Cc2ccn(C)c2)[C@H]2CCNC[C@H]2F)cc1 [Compound I-124] |  |  | 9.16 | 8.65 |  |
| CN1CCC(N(Cc2ccc(F)cn2)C(=O)NCc2ccc(C3CC3)cc2)CC1 [Compound I-125] | > 8.00 | 7.00 to 8.00 |  |  |  |
| CCCOc1ccc(CNC(=O)N(Cc2cc(C)n(C)n2)[C@H]2CCN(C)CC23CC3)cc1 [Compound I-126] |  |  | 8.72 | 8.96 |  |
| CCCOc1ccc(CNC(=O)N(Cc2cc(C)n(C)n2)[C@@H]2CCN(C)CC23CC3)cc1 [Compound I-127] | < 7.00 | < 7.00 |  |  |  |
| CC(C)CNc1ccc(CNC(=O)N(Cc2ccc(F)cn2)[C@H]2CCNC[C@H]2F)cc1 [Compound I-129] |  |  | 9.07 | 8.82 | 31.4 |
| COCc1ccc(CNC(=O)N(Cc2ccc(C)cn2)C2CCN(C)CC2)cc1 [Compound I-130] |  |  | 7.82 | 6.46 |  |
| Cc1cc(CN(C(=O)NCc2ccc(OCC(C)C)cc2)[C@H]2CCNC[C@H]2F)nn1C [Compound I-133] |  |  |  |  | 6.6 |
| CCCOc1ccc(CNC(=O)N(Cc2ccn(C)c2)[C@H]2CCNC[C@H]2F)cc1 [Compound I-134] |  |  | 9.32 | 8.49 | 31.2 |
| CCCOc1ccc(CNC(=O)N(Cc2cc(C)n(C)n2)[C@H]2CCN(C)C[C@H]2F)cc1 [Compound I-139] |  |  | 8.53 | 7.95 | 14.2 |
| CCCOc1ccc(CNC(=O)N(Cc2ccn(C)c2)[C@H]2CCN(C)C[C@H]2F)cc1 [Compound I-141] |  |  |  |  | 49.3 |
| CC(C)COc1ccc(CNC(=O)N(Cc2cc(CF)n(C)n2)[C@H]2CCN(C)C[C@H]2F)cc1 [Compound I-146] |  |  | 8.71 | 8.30 |  |
| CC(C)CN(C)c1ccc(CNC(=O)N(Cc2ccc(F)cn2)[C@H]2CCN(C)C[C@H]2F)cc1 [Compound I-147] |  |  | 9.12 | 8.67 |  |

Source: US12527775B2 (priority 2020, dated 2026)
